Laboratory results taken from the supplement of paper PMC10307832.

Assays:
Experiment in all cases: relative viability (nuclei count vs DMSO), 5 days (fraction); higher = more cells survive
[1] = test system: A-427
In short: (§1)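 For relative viability, nuclei counts in treated wells were divided by those in vehicle wells. Lung cancer cell lines had been pin-tool dosed in 1536-well plates the day after seeding and cultured for 5 days, then fixed and stained in one step (final 0.05% Triton X-100, 1% formaldehyde, 1 ug/ml Hoechst) and imaged at 4×. Doses were one drug alone or a fixed anchor-drug dose plus five library-drug doses (not always all listed) in √10 steps, and values are duplicate-plate medians.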

[2] = test system: HCC-15
In short: as §1

[3] = test system: HCC-78
In short: as §1

[4] = test system: HOP-62
In short: as §1

[5] = test system: LC-2-ad
In short: as §1

[6] = test system: LXF-289
In short: as §1

[7] = test system: NCI-H1734
In short: as §1

[8] = test system: NCI-H1755
In short: as §1

[9] = test system: NCI-H1792
In short: as §1

[10] = test system: NCI-H1915
In short: as §1

[11] = test system: NCI-H1975
In short: as §1

[12] = test system: NCI-H2126
In short: as §1

[13] = test system: NCI-H2228
In short: as §1

[14] = test system: NCI-H2347
In short: as §1

[15] = test system: NCI-H358
In short: as §1

[16] = test system: NCI-H647
In short: as §1

[17] = test system: PC-3 [JPC-3]
In short: as §1

[18] = test system: RERF-LC-KJ
In short: as §1

[19] = test system: SK-LU-1
In short: as §1

[20] = test system: SW 1573
In short: as §1

COc1cc2nccc(Oc3ccc(NC(=O)Nc4cc(C)on4)c(Cl)c3)c2cc1OC [Tivozanib] + C[C@@H](Oc1cc(-c2cnn(C3CCNCC3)c2)cnc1N)c1c(Cl)ccc(F)c1Cl [Crizotinib] (partner 1 µM)
relative viability ([1]; first compound 0.005 µM): 0.82
relative viability ([1]; first compound 0.01581 µM): 0.84
relative viability ([1]; first compound 0.05 µM): 0.986
relative viability ([1]; first compound 0.1581 µM): 0.818
relative viability ([1]; first compound 0.5 µM): 0.827
relative viability ([2]; first compound 0.005 µM): 0.811
relative viability ([2]; first compound 0.01581 µM): 0.824
relative viability ([2]; first compound 0.05 µM): 0.796
relative viability ([2]; first compound 0.1581 µM): 0.79
relative viability ([2]; first compound 0.5 µM): 0.811
relative viability ([3]; first compound 0.005 µM): 0.352
relative viability ([3]; first compound 0.01581 µM): 0.365
relative viability ([3]; first compound 0.05 µM): 0.313
relative viability ([3]; first compound 0.1581 µM): 0.364
relative viability ([3]; first compound 0.5 µM): 0.351
relative viability ([4]; first compound 0.005 µM): 0.557
relative viability ([4]; first compound 0.01581 µM): 0.939
relative viability ([4]; first compound 0.05 µM): 0.928
relative viability ([4]; first compound 0.1581 µM): 0.853
relative viability ([4]; first compound 0.5 µM): 0.919
relative viability ([5]; first compound 0.005 µM): 0.413
relative viability ([5]; first compound 0.01581 µM): 0.426
relative viability ([5]; first compound 0.05 µM): 0.522
relative viability ([5]; first compound 0.1581 µM): 0.468
relative viability ([5]; first compound 0.5 µM): 0.347
relative viability ([6]; first compound 0.005 µM): 0.762
relative viability ([6]; first compound 0.01581 µM): 0.742
relative viability ([6]; first compound 0.05 µM): 0.82
relative viability ([6]; first compound 0.1581 µM): 0.864
relative viability ([6]; first compound 0.5 µM): 0.705
relative viability ([7]; first compound 0.005 µM): 0.616
relative viability ([7]; first compound 0.01581 µM): 0.63
relative viability ([7]; first compound 0.05 µM): 0.682
relative viability ([7]; first compound 0.1581 µM): 0.574
relative viability ([7]; first compound 0.5 µM): 0.565
relative viability ([8]; first compound 0.005 µM): 0.832
relative viability ([8]; first compound 0.01581 µM): 0.845
relative viability ([8]; first compound 0.05 µM): 0.937
relative viability ([8]; first compound 0.1581 µM): 0.872
relative viability ([8]; first compound 0.5 µM): 0.775
relative viability ([9]; first compound 0.005 µM): 0.96
relative viability ([9]; first compound 0.01581 µM): 1.01
relative viability ([9]; first compound 0.05 µM): 1.07
relative viability ([9]; first compound 0.1581 µM): 0.933
relative viability ([9]; first compound 0.5 µM): 1.07
relative viability ([10]; first compound 0.005 µM): 0.863
relative viability ([10]; first compound 0.01581 µM): 0.905
relative viability ([10]; first compound 0.05 µM): 0.972
relative viability ([10]; first compound 0.1581 µM): 0.924
relative viability ([10]; first compound 0.5 µM): 0.857
relative viability ([11]; first compound 0.005 µM): 1.03
relative viability ([11]; first compound 0.01581 µM): 0.856
relative viability ([11]; first compound 0.05 µM): 0.944
relative viability ([11]; first compound 0.1581 µM): 0.833
relative viability ([11]; first compound 0.5 µM): 0.826
relative viability ([12]; first compound 0.005 µM): 0.965
relative viability ([12]; first compound 0.01581 µM): 0.946
relative viability ([12]; first compound 0.05 µM): 1.03
relative viability ([12]; first compound 0.1581 µM): 0.912
relative viability ([12]; first compound 0.5 µM): 1.03
relative viability ([13]; first compound 0.005 µM): 0.439
relative viability ([13]; first compound 0.01581 µM): 0.421
relative viability ([13]; first compound 0.05 µM): 0.491
relative viability ([13]; first compound 0.1581 µM): 0.453
relative viability ([13]; first compound 0.5 µM): 0.605
relative viability ([14]; first compound 0.005 µM): 0.578
relative viability ([14]; first compound 0.01581 µM): 0.679
relative viability ([14]; first compound 0.05 µM): 0.673
relative viability ([14]; first compound 0.1581 µM): 0.685
relative viability ([14]; first compound 0.5 µM): 0.605
relative viability ([15]; first compound 0.005 µM): 0.594
relative viability ([15]; first compound 0.01581 µM): 0.706
relative viability ([15]; first compound 0.05 µM): 0.622
relative viability ([15]; first compound 0.1581 µM): 0.604
relative viability ([15]; first compound 0.5 µM): 0.462
relative viability ([16]; first compound 0.005 µM): 0.925
relative viability ([16]; first compound 0.01581 µM): 1.1
relative viability ([16]; first compound 0.05 µM): 1.13
relative viability ([16]; first compound 0.1581 µM): 1.05
relative viability ([16]; first compound 0.5 µM): 0.991
relative viability ([17]; first compound 0.005 µM): 0.912
relative viability ([17]; first compound 0.01581 µM): 0.997
relative viability ([17]; first compound 0.05 µM): 0.991
relative viability ([17]; first compound 0.1581 µM): 1.02
relative viability ([17]; first compound 0.5 µM): 1.02
relative viability ([18]; first compound 0.005 µM): 0.771
relative viability ([18]; first compound 0.01581 µM): 0.81
relative viability ([18]; first compound 0.05 µM): 0.863
relative viability ([18]; first compound 0.1581 µM): 0.85
relative viability ([18]; first compound 0.5 µM): 0.747
relative viability ([19]; first compound 0.005 µM): 0.909
relative viability ([19]; first compound 0.01581 µM): 0.864
relative viability ([19]; first compound 0.05 µM): 0.932
relative viability ([19]; first compound 0.1581 µM): 0.614
relative viability ([19]; first compound 0.5 µM): 0.84
relative viability ([20]; first compound 0.005 µM): 0.901
relative viability ([20]; first compound 0.01581 µM): 0.765
relative viability ([20]; first compound 0.05 µM): 0.78
relative viability ([20]; first compound 0.1581 µM): 0.749
relative viability ([20]; first compound 0.5 µM): 0.829
